{"source": "paper PMC5731934", "about": "“Modifying glycyrrhetinic acid liposomes with liver-targeting ligand of galactosylated derivative: preparation and evaluations” (Oncotarget, 2017)", "origin": "cited, not measured here", "set-up": "method as in PMID 11752037"}
{"smiles": "CC1(C)[C@@H](O)CC[C@]2(C)[C@H]3C(=O)C=C4[C@@H]5C[C@@](C)(C(=O)O)CC[C@]5(C)CC[C@@]4(C)[C@]3(C)CC[C@@H]12", "note": "[GA, Glycyrrhetinic acid]", "values": [{"measurement": "solubility in water", "value": "< 10", "unit": "µg/mL"}]}
